Reference: PMC3934827 (Neuropharmacology, 2014)
Read-outs that look alike come from different tables or passages of the source.

Tests used:
PDE10A = test: Estimated PDE10A target occupancy; assay type: in vivo, Rhesus monkeys (Macaca mulatta); conditions: calculated from Cp,u with IC50 1.0 nM
[1] = test system: parkinsonian motor effects; test: Standardized motor disability scale for parkinsonian primates; assay type: in vivo, Rhesus monkeys (Macaca mulatta)
[2] = Plasma levels of MP-10 after subcutaneous administration; conditions: rhesus monkey, sc
psychotic symptoms = conditions: ref DeMartinis, 2012, cited from earlier work
brain [18F] FDG uptake = test: [18F] Fluorodeoxyglucose-PET imaging of brain; assay type: in vivo, Rhesus monkeys (Macaca mulatta)
[3] = rat; ref Schmidt et al, 2008; cited from earlier work
[4] = test system: cortical-, extrapyramidal motor- and autonomic-mediated functions; test: Drug Effects on Nervous System
[5] = test system: blood-brain barrier efflux transporters; conditions: ref Verhoest et al, 2009; cited from earlier work
[6] = mouse; ref Verhoest et al, 2009; cited from earlier work
stability and balance = test: Perch test; assay type: in vivo, Rhesus monkeys (Macaca mulatta); conditions: MP-10 0.21 or 0.67 mg/kg s.c.
[7] = test system: finger dexterity / fast hand movements; test: Klüver Board test; assay type: in vivo, Rhesus monkeys (Macaca mulatta)
D2 receptor = conditions: ref Olsen et al., 2008; cited from earlier work
[8] = MP-10 0.67 and 1.33 mg/kg s.c., p < 0.001
[9] = MP-10 doses up to 0.21 mg/kg s.c.
[10] = risperidone 0.032 and 0.1 mg/kg s.c.

## Cn1cc(-c2ccncc2)c(-c2ccc(OCc3ccc4ccccc4n3)cc2)n1 [MP-10, 2-[4-(1-methyl-4-pyridin-4-yl-1H-pyrazol-3-yl)-phenoxymethyl]-quinoline]
PDE10A; 0.21 mg/kg s.c., 1 h
  projected PDE10A target occupancy: 16 ± 1%
PDE10A; 0.21 mg/kg s.c., 2 h
  projected PDE10A target occupancy: 19 ± 3%
PDE10A; 0.21 mg/kg s.c., 3 h
  projected PDE10A target occupancy: 17 ± 1%
PDE10A; 0.67 mg/kg s.c., 1 h
  projected PDE10A target occupancy: 41 ± 5%
PDE10A; 0.67 mg/kg s.c., 2 h
  projected PDE10A target occupancy: 47 ± 2%
PDE10A; 0.67 mg/kg s.c., 3 h
  projected PDE10A target occupancy: 42 ± 3%
[1]; MP-10 0.021, 0.067, or 0.21 mg/kg s.c., 3 hours after administration
  global motor disability scores: no effect
[1]; MP-10 0.67 and 1.33 mg/kg s.c., similar at both doses, p < 0.001
  social interaction: decrease in social interaction
[1]; [8]
  impairment in hand movements: mild and similar at both doses
  impairment in leg movements: mild and similar at both doses
  mobility score: increased in a dose dependent fashion
  posture score: increased in a dose dependent fashion
[1]; MP-10 0.67 and 1.33 mg/kg s.c., p < 0.001, 3 of the 4 monkeys
  global motor disability scores: increase in global scores
[2]
  Tmax: 1 to 2 h
Psychotic symptoms; Phase 2A trial NCT01175135
  primary endpoint: reduction in psychotic symptoms: did not meet the primary endpoint
Psychotic symptoms
  adverse effects in Phase 2A trial: sedation and side effects consistent with target engagement
Brain [18F] FDG uptake; MP-10 0.211 or 1.33 mg/kg s.c., p < 0.01, n=4
  SUV of [18F] FDG in striatal regions (pooled) vs vehicle: statistically significant increases
Brain [18F] FDG uptake; MP-10 0.211 or 1.33 mg/kg s.c., p < 0.02, n=4
  SUV of [18F] FDG in cortical regions (pooled) vs vehicle: statistically significant increases
Brain [18F] FDG uptake; two doses of MP-10 (0.21, 1.33 mg/kg s.c.)
  FDG SUV in other brain regions relative to control (vehicle): No significant differences
[3]
  brain-to-plasma ratio (total brain-to-total plasma concentrations): ~ 0.9
[4]; [8]
  DENS attentiveness: decreased attentiveness
  DENS involuntary movements: induced oral dyskinesias
  DENS reactivity: decreased attentiveness and reactivity
  total DENS scores: significant effects
[4]; [9]
  DENS involuntary movements: no effect
[4]; MP-10 s.c.
  DENS salivation: non-significant increases
[5]
  substrate for blood-brain barrier efflux transporters: no evidence that it is a substrate
[6]
  brain-to-plasma ratio (total brain-to-total plasma concentrations): ~ 0.9
Stability and balance
  Perch test performance: did not show any compromise
  Perch test scores before and 90 min after injection: zero
[7]; MP-10 0.67 and 1.33 mg/kg s.c.
  Klüver board task performance: failed to perform the task
[7]; [9]
  Klüver board index of success: no effect
[7]; MP-10 doses up to 0.21 mg/kg s.c., 90 min after injection
  Klüver board action time: no effect

## Cc1nc2n(c(=O)c1CCN1CCC(c3noc4cc(F)ccc34)CC1)CCCC2 [risperidone, reference compound]
[1]; risperidone 0.01 mg/kg s.c., 3 hours after administration
  motor disability scores (motor behavior): no effect
[1]; [10]
  hand movement score, in comparison to MP-10: greater, dose-dependent increases
  leg movement score, in comparison to MP-10: greater, dose-dependent increases
  mobility score, in comparison to MP-10: notably less effect
  posture score, in comparison to MP-10: roughly comparable increases
[1]; risperidone 0.032 and 0.1 mg/kg s.c., dose- and time-dependent, p < 0.001
  motor disability scores: significant increases
D2 receptor
  D2 receptor TO at which antipsychotic efficacy is observed: > 55%
[4]; risperidone 0.01 mg/kg s.c.
  behaviors scored using the DENS scale: minimal effects
[4]; risperidone 0.032 mg/kg s.c., all monkeys
  DENS involuntary movements: significant involuntary movements
[4]; risperidone 0.1 mg/kg s.c. vs 0.032 mg/kg
  intensity of involuntary movements: further increased
[4]; risperidone s.c.
  DENS attentiveness, compared with MP-10: less impairment
  DENS reactivity, compared with MP-10: less impairment
[7]; risperidone 0.01 mg/kg s.c.
  Klüver board action time, baseline vs 90 min: No significant differences
[7]; risperidone 0.032 and 0.1 mg/kg s.c., at cut off
  Klüver board action time: 60 s
